Measurements taken from PubChem BioAssay AID330 (DTP/NCI, 2004).
“And” between values parts separate entries of the source, which are not always exact repeats. Equal entries are not always repeated. Inconclusive results and toxic doses are left out.

Tested on: P388 leukemia ip, CD2F1 mice, survival T/C
Assay: NCI In Vivo Anticancer Drug Screen. Data for tumor model P388 Leukemia (intraperitoneal) in CD2F1 (CDF1) mice
Details: endpoint: median survival time, higher = longer survival
Procedure, shortened: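 Mice carrying the transplanted tumor received test compound or vehicle. Survival was recorded in each group, and the value is the treated-group measurement divided by that of the vehicle-treated control group.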

[1] = dose: 50.0 mg/kg/injection, schedule: Q01DX005 (ip), vehicle: Klucel (hydroxypropylcellulose) (HPC)
[2] = dose: 100.0 mg/kg/injection, schedule: Q01DX005 (ip), vehicle: Klucel (hydroxypropylcellulose) (HPC)
[3] = dose: 200.0 mg/kg/injection, schedule: Q01DX005 (ip), vehicle: Klucel (hydroxypropylcellulose) (HPC)
[4] = dose: 6.25 mg/kg/injection, schedule: Q01DX009 (ip), vehicle: saline
[5] = dose: 200.0 mg/kg/injection, schedule: Q01DX009 (ip), vehicle: saline with Tween-80
[6] = dose: 7.5 mg/kg/injection, schedule: Q01DX005 (ip), vehicle: saline with Tween-80
[7] = dose: 15.0 mg/kg/injection, schedule: Q01DX005 (ip), vehicle: saline with Tween-80
[8] = dose: 30.0 mg/kg/injection, schedule: Q01DX005 (ip), vehicle: saline with Tween-80
[9] = dose: 60.0 mg/kg/injection, schedule: Q01DX005 (ip), vehicle: saline with Tween-80
[10] = dose: 120.0 mg/kg/injection, schedule: Q01DX005 (ip), vehicle: saline with Tween-80
[11] = dose: 240.0 mg/kg/injection, schedule: Q01DX005 (ip), vehicle: saline with Tween-80
[12] = dose: 60.0 mg/kg/injection, schedule: Q01DX005 (ip), vehicle: Klucel (hydroxypropylcellulose) (HPC)
[13] = dose: 120.0 mg/kg/injection, schedule: Q01DX005 (ip), vehicle: Klucel (hydroxypropylcellulose) (HPC)
[14] = dose: 240.0 mg/kg/injection, schedule: Q01DX005 (ip), vehicle: Klucel (hydroxypropylcellulose) (HPC)
[15] = dose: 25.0 mg/kg/injection, schedule: Q01DX005 (ip), vehicle: Klucel (hydroxypropylcellulose) (HPC)
[16] = dose: 50.0 mg/kg/injection, schedule: Q01DX009 (ip), vehicle: Klucel (hydroxypropylcellulose) (HPC)
[17] = dose: 100.0 mg/kg/injection, schedule: Q01DX001 (ip), vehicle: Klucel (hydroxypropylcellulose) (HPC)
[18] = dose: 200.0 mg/kg/injection, schedule: Q01DX001 (ip), vehicle: Klucel (hydroxypropylcellulose) (HPC)
[19] = dose: 400.0 mg/kg/injection, schedule: Q01DX001 (ip), vehicle: Klucel (hydroxypropylcellulose) (HPC)
[20] = dose: 50.0 mg/kg/injection, schedule: Q01DX009 (ip), vehicle: saline with Tween-80
[21] = dose: 100.0 mg/kg/injection, schedule: Q01DX009 (ip), vehicle: saline with Tween-80

`O=C1CCC(=O)N1CCCCCCN1C(=O)CCC1=O` was tested, and the T/C [1] was 90 % of control, the T/C [2] was 99 % of control and the T/C [3] was 98 % of control. For the same compound, the T/C (dose: 400.0 mg/kg/injection, schedule: Q01DX005 (ip), vehicle: Klucel (hydroxypropylcellulose) (HPC)) was 89 % of control.
In the case of `C/C=C/C=C\C(=O)O`, the T/C [4] is reported as 102 % of control, the T/C (dose: 12.5 mg/kg/injection, schedule: Q01DX009 (ip), vehicle: saline) is reported as 93 % of control and the T/C (dose: 25.0 mg/kg/injection, schedule: Q01DX009 (ip), vehicle: saline) is reported as 93 % of control. The T/C [5] was 104 % of control.
With `Clc1ccccc1-c1nnc(-c2cccc(-c3nnc(-c4ccccc4Cl)o3)n2)o1` the T/C [6] was 89 % of control, the T/C [7] was 91 % of control and the T/C [8] was 89 % of control. For the same compound, the T/C [9] was 101 % of control, the T/C [10] was 97 % of control and the T/C [11] was 104 % of control.
With `CCOC(=O)C1=C(Nc2ccc([N+](=O)[O-])cc2)CCCC1` the T/C (dose: 1.56 mg/kg/injection, schedule: Q01DX009 (ip), vehicle: saline) was 93 % of control, the T/C (dose: 3.12 mg/kg/injection, schedule: Q01DX009 (ip), vehicle: saline) was 95 % of control and the T/C [4] was 95 % of control.
With `CC[C@@]1(O)C(=O)OCc2c1cc1n(c2=O)Cc2cc3cc(OC)ccc3nc2-1` the T/C (dose: 1.57 mg/kg/injection, schedule: Q04DX003 (ip), vehicle: other) was 165 % of control and the T/C (dose: 3.13 mg/kg/injection, schedule: Q04DX003 (ip), vehicle: other) was 98 % of control.
For `CC(=O)Oc1cccc2c1C(=O)C1CC=CC(OC(C)=O)C1C2=O` (stereo unspecified), the T/C [12] was 100 % of control, the T/C [13] was 100 % of control and the T/C [14] was 100 % of control.
`C=C(C)[C@H]1CCC23C[C@@H]4C(C[C@H]2C1(C)CCC(=O)O)C4(C)C3` (stereo partly specified) was tested, and the T/C (dose: 5.5 mg/kg/injection, schedule: Q01DX005 (ip), vehicle: Klucel (hydroxypropylcellulose) (HPC)) was 100 % of control, the T/C (dose: 11.0 mg/kg/injection, schedule: Q01DX005 (ip), vehicle: Klucel (hydroxypropylcellulose) (HPC)) was 106 % of control and the T/C (dose: 22.0 mg/kg/injection, schedule: Q01DX005 (ip), vehicle: Klucel (hydroxypropylcellulose) (HPC)) was 100 % of control. For the same compound, the T/C [15] was 91 % of control, the T/C (dose: 44.0 mg/kg/injection, schedule: Q01DX005 (ip), vehicle: Klucel (hydroxypropylcellulose) (HPC)) was 100 % of control and the T/C [1] was 100 % of control. For the same compound, the T/C [2] was 91 % of control and the T/C [3] was 91 % of control.
For `Oc1ccc2ccccc2c1-c1c(OC(c2ccccc2)c2ccccc2)ccc2ccccc12`, the T/C (dose: 100.0 mg/kg/injection, schedule: Q04DX003 (ip), vehicle: saline with Tween-80) was 102 % of control, the T/C (dose: 200.0 mg/kg/injection, schedule: Q04DX003 (ip), vehicle: saline with Tween-80) was 94 % of control and the T/C (dose: 400.0 mg/kg/injection, schedule: Q04DX003 (ip), vehicle: saline with Tween-80) was 102 % of control.
With `CCCCCCCCCCCCCCCCC[CH2][Sn](=[O])[OH]` the T/C (dose: 50.0 mg/kg/injection, schedule: Q01DX009 (ip), vehicle: saline) was 111 % of control, the T/C (dose: 100.0 mg/kg/injection, schedule: Q01DX009 (ip), vehicle: saline) was 113 % of control and the T/C (dose: 200.0 mg/kg/injection, schedule: Q01DX009 (ip), vehicle: saline) was 114 % of control.
With `O=C(NCCN1CCN2Cc3[nH]c4ccccc4c3CC2C1)c1ccc(Cl)cc1` (stereo unspecified) the T/C (dose: 60.0 mg/kg/injection, schedule: Q01DX005 (ip), vehicle: saline) was 102 % of control, the T/C (dose: 120.0 mg/kg/injection, schedule: Q01DX005 (ip), vehicle: saline) was 97 % of control and the T/C (dose: 240.0 mg/kg/injection, schedule: Q01DX005 (ip), vehicle: saline) was 90 % of control.
With `O=C1c2ccccc2C(=O)N1CCc1ccccc1Br` the T/C [1] was 104 % of control and the T/C [2] was 96 % of control.
With `Cc1nc2c(cnn2C)c(=O)n1-c1ccccc1Cl` the T/C [1] was 103 % of control, the T/C [2] was 95 % of control and the T/C [3] was 98 % of control.
In the case of `NCC(=O)NCC(=O)NC(Cc1ccc(O)cc1)C(=O)O` (stereo unspecified), the T/C (dose: 50.0 mg/kg/injection, schedule: Q01DX005 (ip), vehicle: saline with Tween-80) is reported as 101 % of control, the T/C (dose: 100.0 mg/kg/injection, schedule: Q01DX005 (ip), vehicle: saline with Tween-80) is reported as 96 % of control and the T/C (dose: 200.0 mg/kg/injection, schedule: Q01DX005 (ip), vehicle: saline with Tween-80) is reported as 104 % of control.
With `C/C(=N\N1CN(C(C)C(=O)O)P(Nc2ncn[nH]2)N=C1N)c1cccs1` (stereo unspecified) the T/C [6] was 96 % of control, the T/C [7] was 103 % of control and the T/C [8] was 106 % of control.
In the case of `CCCCOc1ccc(C(=O)OCCNC2CCCCC2)cc1N`, the T/C (dose: 6.25 mg/kg/injection, schedule: Q01DX009 (ip), vehicle: Klucel (hydroxypropylcellulose) (HPC)) is reported as 100 % of control, the T/C (dose: 12.5 mg/kg/injection, schedule: Q01DX009 (ip), vehicle: Klucel (hydroxypropylcellulose) (HPC)) is reported as 101 % of control and the T/C (dose: 25.0 mg/kg/injection, schedule: Q01DX009 (ip), vehicle: Klucel (hydroxypropylcellulose) (HPC)) is reported as 93 % of control. For the same compound, the T/C [16] was 91 % of control.
In the case of `Cc1cccc(C)c1N=O`, the T/C [16] is reported as 122 % of control and 124 % of control and the T/C (dose: 200.0 mg/kg/injection, schedule: Q01DX009 (ip), vehicle: Klucel (hydroxypropylcellulose) (HPC)) is reported as 87 % of control.
`c1ccc(-c2ccc[n+](CC[n+]3cccc(-c4ccccn4)c3)c2)nc1` was tested, and the T/C [9] was 104 % of control and the T/C [10] was 100 % of control.
For `N#CC(N)C(F)c1ccccc1` (stereo unspecified), the T/C [17] was 100 % of control, the T/C [18] was 101 % of control and the T/C [19] was 101 % of control.
`CCCCCCCCCCCCCS` was tested, and the T/C [20] was 118 % of control and the T/C (dose: 132.0 mg/kg/injection, schedule: Q04DX003 (ip), vehicle: saline with Tween-80) was 104 % of control.
`O=NN(CCCl)C(=O)Oc1ccc(OC(=O)N(CCCl)N=O)cc1` was tested, and the T/C (dose: 6.25 mg/kg/injection, schedule: Q01DX001 (ip), vehicle: Klucel (hydroxypropylcellulose) (HPC)) was 116 % of control and the T/C (dose: 12.5 mg/kg/injection, schedule: Q01DX001 (ip), vehicle: Klucel (hydroxypropylcellulose) (HPC)) was 119 % of control.
With `CC(=O)OCC1OC(n2ncc(=S)[nH]c2=O)C2OC(C)(C)OC12` (stereo unspecified) the T/C [20] was 92 % of control, the T/C [21] was 95 % of control and the T/C [5] was 97 % of control.
In the case of `Nc1nnn(/N=C\C=N/n2nnc(N)n2)n1`, the T/C [17] is reported as 94 % of control, the T/C [18] is reported as 102 % of control and the T/C [19] is reported as 105 % of control.
With `CC1(C)Nc2ccccc2C(c2ccccc2)=NC1=O` the T/C [12] was 101 % of control and 102 % of control, the T/C [13] was 105 % of control and 98 % of control and the T/C [14] was 104 % of control and 91 % of control.
With `Nc1nc(N)c2cc(NCc3ccccc3Cl)ccc2n1` the T/C (dose: 6.25 mg/kg/injection, schedule: Q01DX001 (ip), vehicle: saline with Tween-80) was 100 % of control, the T/C (dose: 12.5 mg/kg/injection, schedule: Q01DX001 (ip), vehicle: saline with Tween-80) was 112 % of control and the T/C (dose: 16.5 mg/kg/injection, schedule: Q01DX009 (ip), vehicle: saline with Tween-80) was 104 % of control. For the same compound, the T/C (dose: 25.0 mg/kg/injection, schedule: Q01DX001 (ip), vehicle: saline with Tween-80) was 104 % of control.
`CC1(C)COC(=O)C(C#N)=C1CBr` was tested, and the T/C (dose: 12.5 mg/kg/injection, schedule: Q01DX005 (ip), vehicle: Klucel (hydroxypropylcellulose) (HPC)) was 105 % of control, the T/C [15] was 105 % of control and the T/C [1] was 99 % of control and 116 % of control.
For `OCCN1OCCCC1c1ccccc1` (stereo unspecified), the T/C [20] was 94 % of control and the T/C [21] was 92 % of control.
With `CSc1nc2c(nnn2C2OC(CO)C(O)C(O)C2O)c(=O)[nH]1` (stereo unspecified) the T/C [9] was 100 % of control, the T/C [10] was 97 % of control and the T/C [11] was 102 % of control.
